Among the data in patent US12459974B2, “Bicyclic peptide ligands specific for Nectin-4” (priority 2018, dated 2025) are Ki values, retold here.

For orientation: Ki means a dissociation constant, usually derived from enzyme kinetics or from competition with a known ligand.

*1 amine or outer side, *2 acyl side, *3 side chain or, on linkers, in order; H or OH if unused. Where a SMILES comes first, the peptide text is derived from it. Bridges are numbered along the chain shown (N, C = ends). [ ]: non-standard residue; d: D form. TATA = O=C(CC[*:1])N1CN(C(=O)CC[*:2])CN(C(=O)CC[*:3])C1; hArg = N=C(N)NCCCC[C@H](N)C(=O)O; Pip = O=C(O)[C@@H]1CCCCN1; βAla = NCCC(=O)O; Sar = CNCC(=O)O

The assay deals with T1, human Nectin-4 (Homo sapiens, UniProt Q96NY8).
T1 sequence (Q96NY8 32-510): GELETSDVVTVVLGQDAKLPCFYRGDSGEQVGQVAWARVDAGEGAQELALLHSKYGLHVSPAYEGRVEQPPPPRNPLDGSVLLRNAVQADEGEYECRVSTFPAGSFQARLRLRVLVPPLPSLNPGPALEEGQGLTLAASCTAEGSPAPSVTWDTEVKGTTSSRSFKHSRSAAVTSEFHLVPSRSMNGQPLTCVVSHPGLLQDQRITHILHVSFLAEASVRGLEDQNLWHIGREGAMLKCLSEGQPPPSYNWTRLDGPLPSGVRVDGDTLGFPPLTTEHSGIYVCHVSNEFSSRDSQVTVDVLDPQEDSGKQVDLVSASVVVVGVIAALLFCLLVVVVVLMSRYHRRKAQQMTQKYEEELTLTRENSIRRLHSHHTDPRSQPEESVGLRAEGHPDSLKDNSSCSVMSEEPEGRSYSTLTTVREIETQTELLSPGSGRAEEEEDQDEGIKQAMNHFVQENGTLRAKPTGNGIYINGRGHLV
The experiment in a line: Nectin-4 competition binding assay (fluorescence polarisation). Conditions: competition with fluorescent peptide SEQ ID NO: 217; read-out: Ki. The procedure:
Peptides were diluted to an appropriate concentration in assay buffer as described in the direct binding assay with a maximum of 5% DMSO, then serially diluted 1 in 2. Five μL of diluted peptide was added to the plate followed by 10 μL of human Nectin-4, then 10 μL fluorescent peptide added. Measurements were conducted as for the direct binding assay, however the gain was determined prior to the first measurement. Data analysis was in Systat Sigmaplot version 12.0 where the mP values were fit to a user defined cubic equation to generate a Ki value: • f=ymin+(ymax−ymin)/Lig*((Lig*((2*((Klig+Kcomp+Lig+Comp-Prot*c)^2-3*(Kcomp*(Lig-Prot*c)+Klig*(Comp-Prot*c)+Klig*Kcomp))^0.5*COS(ARCCOS((−2*(Klig+Kcomp+Lig+Comp-Prot*c)^3+9*(Klig+Kcomp+Lig+Comp-Prot*c)*(Kcomp*(Lig-Prot*c)+Klig*(Comp-Prot*c)+Klig*Kcomp)−27*(−1*Klig*Kcomp*Prot*c)/(2*((((Klig+Kcomp+Lig+Comp-Prot*c)^2−3*(Kcomp*(Lig-Prot*c)+Klig*(Comp-Prot*c)+Klig*Kcomp))^3)^0.5)))/3))−(Klig+Kcomp+Lig+Comp-Prot*c)))/((3*Klig)+((2*((Klig+Kcomp+Lig+Comp-Prot*c)^2−3*(Kcomp*(Lig-Prot*c)+Klig*(Comp-Prot*c)+Klig*Kcomp))^0.5*COS (ARCCOS ((−2*(Klig+Kcomp+Lig+Comp-Prot*c)^3+9*(Klig+Kcomp+Lig+Comp-Prot*c)*(Kcomp*(Lig-Prot*c)+Klig*(Comp-Prot*c)+Klig*Kcomp)-27*(−1*Klig*Kcomp*Prot*c))/(2*((((Klig+Kcomp+Lig+Comp-Prot*c)^2-3*(Kcomp*(Lig-Prot*c)+Klig*(Comp-Prot+c)+Klig*Kcomp))^3)^0.5))/3)−(Klig+Kcomp+Lig+Comp-Prot*c)))).
“Lig”, “KLig” and “Prot” were all defined values relating to: fluorescent peptide concentration, the Kd of the fluorescent peptide and Nectin concentration respectively.
For orientation: Fluorescence polarisation rises when a labelled molecule tumbles more slowly, as on binding a larger partner.
Regarding `CC[C@H](C)[C@@H]1NC(=O)[C@@H]2CCCN2C(=O)[C@H](Cc2c[nH]c3ccccc23)NC(=O)[C@H](C)NC(=O)[C@H](Cc2c[nH]c3ccccc23)NC(=O)[C@H](CC(N)=O)NC(=O)[C@H](CCCCN)NC(=O)[C@H](CCSC)NC(=O)[C@@H]2CSCCC(=O)N3CN(CN(C3)C(=O)CCSC[C@H](NC(=O)[C@H](C)N)C(=O)N3CCC[C@H]3C(=O)N[C@@H](Cc3ccccc3)C(=O)NCC(=O)N2)C(=O)CCSC[C@@H](C(=O)N[C@H](C(=O)N[C@@H](CC(N)=O)C(=O)N[C@@H](CCCCN)C(N)=O)[C@@H](C)O)NC(=O)[C@H](Cc2c[nH]c3ccccc23)NC1=O` [BCY7424, A-(SEQ ID NO: 30)-TNK] (H-ACPFGCMKNWAWPIWCTNK-NH2; linker 2-6-16 via TATA; N-terminus and C-terminus assumed), the Ki amounted to 562 nM.
Consider `CC[C@H](C)[C@@H]1NC(=O)[C@@H]2CCCN2C(=O)[C@H](CC(=O)O)NC(=O)[C@H](CO)NC(=O)[C@H](Cc2c[nH]c3ccccc23)NC(=O)[C@H](CC(N)=O)NC(=O)[C@H](CCCCN)NC(=O)[C@H](CCSC)NC(=O)[C@@H]2CSCCC(=O)N3CN(CN(C3)C(=O)CCSC[C@H](NC(C)=O)C(=O)N3CCC[C@H]3C(=O)N[C@@H](Cc3ccccc3)C(=O)NCC(=O)N2)C(=O)CCSC[C@@H](C(N)=O)NC(=O)[C@H](Cc2c[nH]c3ccccc23)NC1=O` [BCY7540, Ac-(SEQ ID NO: 8)] (Ac-CPFGCMKNWSDPIWC-NH2; linker 1-5-15 via TATA; C-terminus assumed), for which the inhibition constant (Ki) is 357 nM.
Turning to `CC[C@H](C)[C@@H]1NC(=O)[C@@H]2CCCN2C(=O)[C@H](Cc2c[nH]c3ccccc23)NC(=O)[C@H](CO)NC(=O)[C@H](Cc2c[nH]c3ccccc23)NC(=O)[C@H](CC(N)=O)NC(=O)[C@H](CCCCNC(=N)N)NC(=O)[C@H](CCSC)NC(=O)[C@@H]2CSCCC(=O)N3CN(CN(C3)C(=O)CCSC[C@H](NC(=O)CN(C)C(=O)CN(C)C(=O)CN(C)C(=O)CN(C)C(=O)CN(C)C(=O)CCNC(C)=O)C(=O)N3CCC[C@H]3C(=O)N[C@@H](Cc3ccccc3)C(=O)N[C@H](CC(=O)O)C(=O)N2)C(=O)CCSC[C@@H](C(N)=O)NC(=O)[C@H](Cc2c[nH]c3ccccc23)NC1=O` [BCY7558, Ac-[B-Ala][Sar5]-(SEQ ID NO: 76)] (Ac-[βAla][Sar][Sar][Sar][Sar][Sar]CPF[dD]CM[hArg]NWSWPIWC-NH2; linker 7-11-21 via TATA), the Ki is 21.9 nM.
For `CC[C@H](C)[C@@H]1NC(=O)[C@@H]2CCCN2C(=O)[C@H](Cc2ccccc2)NC(=O)[C@H](CO)NC(=O)[C@H](Cc2c[nH]c3ccccc23)NC(=O)[C@H](CC(N)=O)NC(=O)[C@H](CCCCN)NC(=O)[C@H](CCSC)NC(=O)[C@@H]2CSCCC(=O)N3CN(CN(C3)C(=O)CCSC[C@H](NC(C)=O)C(=O)N3CCC[C@H]3C(=O)N[C@@H](Cc3ccccc3)C(=O)NCC(=O)N2)C(=O)CCSC[C@@H](C(N)=O)NC(=O)[C@H](Cc2c[nH]c3ccccc23)NC1=O` [BCY7589, Ac-(SEQ ID NO: 84)] (Ac-CPFGCMKNWSFPIWC-NH2; linker 1-5-15 via TATA; C-terminus assumed), the Ki turned out to be 34.5 nM.
On to `CC[C@H](C)[C@@H]1NC(=O)[C@@H]2CCCN2C(=O)[C@H](Cc2ccc(O)cc2)NC(=O)[C@H](CO)NC(=O)[C@H](Cc2c[nH]c3ccccc23)NC(=O)[C@H](CC(N)=O)NC(=O)[C@H](CCCCN)NC(=O)[C@H](CCSC)NC(=O)[C@@H]2CSCCC(=O)N3CN(CN(C3)C(=O)CCSC[C@H](NC(C)=O)C(=O)N3CCC[C@H]3C(=O)N[C@@H](Cc3ccccc3)C(=O)NCC(=O)N2)C(=O)CCSC[C@@H](C(N)=O)NC(=O)[C@H](Cc2c[nH]c3ccccc23)NC1=O` [BCY7590, Ac-(SEQ ID NO: 85)] (Ac-CPFGCMKNWSYPIWC-NH2; linker 1-5-15 via TATA; C-terminus assumed), for which the Ki amounted to 38.5 nM.
In the case of `CC[C@H](C)[C@@H]1NC(=O)[C@@H]2CCCN2C(=O)[C@H](Cc2ccc3ccccc3c2)NC(=O)[C@H](CO)NC(=O)[C@H](Cc2c[nH]c3ccccc23)NC(=O)[C@H](CC(N)=O)NC(=O)[C@H](CCCCN)NC(=O)[C@H](CCSC)NC(=O)[C@@H]2CSCCC(=O)N3CN(CN(C3)C(=O)CCSC[C@H](NC(C)=O)C(=O)N3CCC[C@H]3C(=O)N[C@@H](Cc3ccccc3)C(=O)NCC(=O)N2)C(=O)CCSC[C@@H](C(N)=O)NC(=O)[C@H](Cc2c[nH]c3ccccc23)NC1=O` [BCY7592, Ac-(SEQ ID NO: 87)], the Ki stood at 37.4 nM.
Turning to `CC[C@H](C)[C@@H]1NC(=O)[C@@H]2CCCCN2C(=O)[C@H](Cc2c[nH]c3ccccc23)NC(=O)[C@H](CO)NC(=O)[C@H](Cc2c[nH]c3ccccc23)NC(=O)[C@H](CC(N)=O)NC(=O)[C@H](CCCCN)NC(=O)[C@H](CCSC)NC(=O)[C@@H]2CSCCC(=O)N3CN(CN(C3)C(=O)CCSC[C@H](NC(C)=O)C(=O)N3CCC[C@H]3C(=O)N[C@@H](Cc3ccccc3)C(=O)NCC(=O)N2)C(=O)CCSC[C@@H](C(N)=O)NC(=O)[C@H](Cc2c[nH]c3ccccc23)NC1=O` [BCY7595, Ac-(SEQ ID NO: 90)] (Ac-CPFGCMKNWSW[Pip]IWC-NH2; linker 1-5-15 via TATA), the inhibitory constant (Ki) amounted to 219 nM.
As for `CC[C@H](C)[C@@H]1NC(=O)[C@@H]2CCCN2C(=O)[C@H](Cc2c[nH]c3ccccc23)NC(=O)[C@H](CO)NC(=O)[C@H](Cc2c[nH]c3ccccc23)NC(=O)[C@H](CC(N)=O)NC(=O)[C@H](CCCCN)NC(=O)[C@H](CCSC)NC(=O)[C@@H]2CSCCC(=O)N3CN(CN(C3)C(=O)CCSC[C@H](NC(C)=O)C(=O)N3CCC[C@H]3C(=O)N[C@@H](Cc3ccccc3)C(=O)NCC(=O)N2)C(=O)CCSC[C@@H](C(N)=O)NC(=O)[C@H](Cc2ccccc2)NC1=O` [BCY7596, Ac-(SEQ ID NO: 91)] (Ac-CPFGCMKNWSWPIFC-NH2; linker 1-5-15 via TATA), the Ki amounted to 353 nM.
As to `CC[C@H](C)[C@@H]1NC(=O)[C@@H]2CCCN2C(=O)[C@H](Cc2c[nH]c3ccccc23)NC(=O)[C@H](CO)NC(=O)[C@H](Cc2c[nH]c3ccccc23)NC(=O)[C@H](CC(N)=O)NC(=O)[C@H](CCCCN)NC(=O)[C@H](CCSC)NC(=O)[C@@H]2CSCCC(=O)N3CN(CN(C3)C(=O)CCSC[C@H](NC(C)=O)C(=O)N3CCC[C@H]3C(=O)N[C@@H](Cc3ccccc3)C(=O)NCC(=O)N2)C(=O)CCSC[C@@H](C(N)=O)NC(=O)[C@H](Cc2ccc(O)cc2)NC1=O` [BCY7597, Ac-(SEQ ID NO: 92)] (Ac-CPFGCMKNWSWPIYC-NH2; linker 1-5-15 via TATA; C-terminus assumed), the Ki amounted to 169 nM.
On to `CC[C@H](C)[C@@H]1NC(=O)[C@@H]2CCCN2C(=O)[C@H](Cc2c[nH]c3ccccc23)NC(=O)[C@H](CO)NC(=O)[C@H](Cc2c[nH]c3ccccc23)NC(=O)[C@H](CC(N)=O)NC(=O)[C@H](CCCCN)NC(=O)[C@H](CCSC)NC(=O)[C@@H]2CSCCC(=O)N3CN(CN(C3)C(=O)CCSC[C@H](NC(=O)[C@@H](CC(=O)O)NC(C)=O)C(=O)N3CCC[C@H]3C(=O)N[C@@H](Cc3ccccc3)C(=O)NCC(=O)N2)C(=O)CCSC[C@@H](C(N)=O)NC(=O)[C@H](Cc2c[nH]c3ccccc23)NC1=O` [BCY7606, Ac-[dD]-(SEQ ID NO: 1)] (Ac-[dD]CPFGCMKNWSWPIWC-NH2; linker 2-6-16 via TATA), for which the Ki was found to be 34 nM.
In the case of `CC[C@H](C)[C@@H]1NC(=O)[C@@H]2CCCN2C(=O)[C@H](Cc2c[nH]c3ccccc23)NC(=O)[C@H](CO)NC(=O)[C@H](Cc2c[nH]c3ccccc23)NC(=O)[C@H](CC(N)=O)NC(=O)[C@H](CCCCN)NC(=O)[C@H](CCSC)NC(=O)[C@@H]2CSCCC(=O)N3CN(CN(C3)C(=O)CCSC[C@H](NC(C)=O)C(=O)NCC(=O)N[C@@H](Cc3ccccc3)C(=O)NCC(=O)N2)C(=O)CCSC[C@@H](C(N)=O)NC(=O)[C@H](Cc2c[nH]c3ccccc23)NC1=O` [BCY7607, Ac-(SEQ ID NO: 94)] (Ac-CGFGCMKNWSWPIWC-NH2; linker 1-5-15 via TATA) it was 77 nM.
